# Measured values reported in patent US9598391B2, “Substituted chroman compounds as calcium sensing receptor modulators” (LUPIN LIMITED, priority 2012, dated 2017).
# Counter-ions that a name gives are not always drawn.
# Target: T1, Calcium Sensing Receptor (CaSR) (Homo sapiens, UniProt P41180)
# T1 construct: expressed in transfected cells
# T1 sequence (P41180 20-1078): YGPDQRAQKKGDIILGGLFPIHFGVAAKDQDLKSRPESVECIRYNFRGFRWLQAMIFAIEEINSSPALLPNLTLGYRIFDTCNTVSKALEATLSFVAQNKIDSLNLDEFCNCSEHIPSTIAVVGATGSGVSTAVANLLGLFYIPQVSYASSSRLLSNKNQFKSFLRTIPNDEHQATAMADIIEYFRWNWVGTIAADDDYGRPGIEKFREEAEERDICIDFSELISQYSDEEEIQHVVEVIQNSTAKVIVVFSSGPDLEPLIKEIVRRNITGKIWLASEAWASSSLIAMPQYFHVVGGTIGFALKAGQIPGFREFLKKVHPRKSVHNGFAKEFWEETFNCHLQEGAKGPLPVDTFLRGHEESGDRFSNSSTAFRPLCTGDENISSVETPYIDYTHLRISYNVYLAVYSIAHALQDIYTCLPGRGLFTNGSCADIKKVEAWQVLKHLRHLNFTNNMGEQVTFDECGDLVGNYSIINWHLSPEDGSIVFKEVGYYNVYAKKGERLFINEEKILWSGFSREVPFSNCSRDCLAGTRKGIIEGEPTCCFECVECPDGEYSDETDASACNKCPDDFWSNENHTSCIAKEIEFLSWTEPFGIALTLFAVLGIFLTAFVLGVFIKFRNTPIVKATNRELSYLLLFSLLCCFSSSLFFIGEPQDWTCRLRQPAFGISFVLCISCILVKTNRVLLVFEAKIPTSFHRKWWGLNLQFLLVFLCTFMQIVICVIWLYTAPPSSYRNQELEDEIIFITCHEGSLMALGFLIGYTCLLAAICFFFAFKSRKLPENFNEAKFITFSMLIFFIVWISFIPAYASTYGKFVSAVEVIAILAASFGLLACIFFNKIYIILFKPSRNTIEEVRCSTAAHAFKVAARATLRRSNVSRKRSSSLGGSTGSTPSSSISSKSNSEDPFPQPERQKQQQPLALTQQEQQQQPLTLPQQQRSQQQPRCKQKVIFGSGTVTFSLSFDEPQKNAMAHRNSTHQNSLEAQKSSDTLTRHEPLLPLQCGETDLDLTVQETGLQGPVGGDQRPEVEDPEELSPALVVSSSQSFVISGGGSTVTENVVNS
# Experiment: In-vitro assay of calcimimetics through modulation of Calcium Sensing Receptor (intracellular calcium, FLIPR)
# Type: cell-based
# Conditions: HEK293 cells stably expressing hCaSR, increase in intracellular calcium, Fluo4NW dye, 0.3 mM CaCl2, 8-point assay, read-out: EC50 Range
# Procedure: In-vitro assay method of Calcimimetics through modulation of Calcium Sensing Receptor (CaSR):
# The ability of the compounds to modulate Calcium sensing receptor is determined by measuring an increase in intracellular calcium [Ca^2+]i. Stably transfected HEK293 cells expressing hCaSR_pTriEx-3 hygro vector are developed. Cells are grown overnight on a 96-well plate to 80% confluency in Ham's F12 containing 20% FBS at 37° C., 5% CO2. Subsequently, cells are washed extensively with 20 mM HEPES buffer containing 126 mM […], 1 mM MgCl2 and 4 mM KCl to remove serum components that might interfere with the assay. Cells are loaded with calcium sensing Fluo4NW dye in HEPES base buffer containing 0.1% BSA and 1 mg/ml glucose for 30 minutes to measure changes in intracellular calcium. The activities of the compounds are measured in FLIPR using 0.3 mM CaCl2 in 20 mM HEPES base buffer. The effectiveness of the compound to modulate receptor activity is determined by calculating the EC50 responses for that compound in an 8-point assay and plotted using GraphPad Prism 5.
row,Compound,EC50 [nM]
1,"Cc1ccc([C@@H]2C[C@H](CN[C@H](C)c3cccc4ccccc34)Oc3ccccc32)c(C)c1C(=O)O [Example 67, 2,6-Dimethyl-3-((2R,4S)-2-((((R)-1-(naphthalen-1-yl)ethyl)amino)methyl)chroman-4-yl)benzoic acid hydrochloride]",< 20
2,"Cc1cc(C(=O)O)cc([C@@H]2C[C@H](CN[C@H](C)c3cccc4ccccc34)Oc3ccccc32)c1 [Example 75, 3-Methyl-5-((2R,4S)-2((((R)-1-(naphthalen-1-yl)ethyl)amino)methyl)chroman-4-yl)benzoic acid hydrochloride]",< 20
3,"Cc1c(C(=O)O)ccc(F)c1[C@H]1C[C@H](CN[C@H](C)c2cccc3ccccc23)Oc2ccccc21 [Example 81a, 4-Fluoro-2-methyl-3-((2R,4S)-2-((((R)-1-(naphthalen-1-yl)ethyl)amino)methyl)chroman-4-yl)benzoic acid hydrochloride]",50 to 200
4,"Cc1c(C(=O)O)ccc(F)c1[C@@H]1C[C@H](CN[C@H](C)c2cccc3ccccc23)Oc2ccccc21 [Example 81b, 4-Fluoro-2-methyl-3-((2R,4R)-2-((((R)-1-(naphthalen-1-yl)ethyl)amino)methyl)chroman-4-yl)benzoic acid hydrochloride]",< 20
5,"C[C@@H](NC[C@H]1C[C@@H](c2ccc(C(F)(F)F)c(C(=O)O)c2)c2ccccc2O1)c1cccc2ccccc12 [Example 83, 5-((2R,4S)-2-((((R)-1-(Naphthalen-1-yl)ethyl)amino)methyl)chroman-4-yl)-2-(trifluoromethyl)benzoic acid hydrochloride]",< 20
6,"Cc1ccc([C@@H]2C[C@H](CN[C@H](C)c3cccc4ccccc34)Oc3ccccc32)cc1C(=O)O [Example 84b, 2-Methyl-5-((2R,4S)-2-((((R)-1-(naphthalen-1-yl)ethyl)amino)methyl)chroman-4-yl)benzoic acid hydrochloride]",< 20
7,"COc1c(C(=O)O)cccc1[C@H]1C[C@H](CN[C@H](C)c2cccc3ccccc23)Oc2ccccc21 [Example 89a, 2-Methoxy-3-((2R,4S)-2-((((R)-1-(naphthalen-1-yl)ethyl)amino)methyl)chroman-4-yl)benzoic acid hydrochloride]",20 to 50
8,"COc1c(C(=O)O)cccc1[C@@H]1C[C@H](CN[C@H](C)c2cccc3ccccc23)Oc2ccccc21 [Example 89b, 2-Methoxy-3-((2R,4R)-2-((((R)-1-(naphthalen-1-yl)ethyl)amino)methyl)chroman-4-yl)benzoic acid hydrochloride]",< 20
9,"Cc1ccc([C@@H]2C[C@H](CN[C@H](C)c3cccc4ccccc34)Oc3ccccc32)cc1OCC(=O)O [Example 91, 2-(2-Methyl-5-((2R,4S)-2-((((R)-1-(naphthalen-1-yl)ethyl)amino)methyl)chroman-4-yl)phenoxy)acetic acid hydrochloride]",< 20
10,"C[C@@H](NC[C@H]1C[C@H](c2ccc(F)c(OCC(=O)O)c2)c2ccccc2O1)c1cccc2ccccc12 [Example 93a, 2-(2-Fluoro-5-((2R,4R)-2-((((R)-1-(naphthalen-1-yl)ethyl)amino)methyl)chroman-4-yl)phenoxy)acetic acid hydrochloride]",< 20
11,"C[C@@H](NC[C@H]1C[C@@H](c2ccc(F)c(OCC(=O)O)c2)c2ccccc2O1)c1cccc2ccccc12 [Example 93b, 2-(2-Fluoro-5-((2R,4S)-2-((((R)-1-(naphthalen-1-yl)ethyl)amino)methyl)chroman-4-yl)phenoxy)acetic acid hydrochloride]",< 20
12,"C[C@@H](NC[C@H]1C[C@@H](c2cccc(OC(C)(C)C(=O)O)c2)c2ccccc2O1)c1cccc2ccccc12 [Example 97, 2-Methyl-2-(3-((2R,4S)-2-((((R)-1-(naphthalen-1-yl)ethyl)amino)methyl)chroman-4-yl)phenoxy)propanoic acid hydrochloride]",20 to 50
13,"C[C@@H](NC[C@H]1C[C@H](c2ccc(C(=O)O)cc2)c2ccccc2O1)c1cccc2ccccc12 [Example 98a, 4-((2R,4R)-2-((((R)-1-(Naphthalen-1-yl)ethyl)amino)methyl)chroman-4-yl)benzoic acid hydrochloride]",50 to 200
14,"C[C@@H](NC[C@H]1C[C@@H](c2ccc(C(=O)O)cc2)c2ccccc2O1)c1cccc2ccccc12 [Example 98b, 4-((2R,4S)-2-((((R)-1-(Naphthalen-1-yl)ethyl)amino)methyl)chroman-4-yl)benzoic acid hydrochloride]",50 to 200
15,"Cc1cc([C@@H]2C[C@H](CN[C@H](C)c3cccc4ccccc34)Oc3ccccc32)ccc1C(=O)O [Example 99b, 2-Methyl-4-((2R,4S)-2-((((R)-1-(naphthalen-1-yl)ethyl)amino)methyl)chroman-4-yl)benzoic acid hydrochloride]",< 20
16,"C[C@@H](NC[C@H]1C[C@@H](c2cc(F)c(C(=O)O)c(F)c2)c2ccccc2O1)c1cccc2ccccc12 [Example 101, 2,6-Difluoro-4-((2R,4S)-2-((((R)-1-(naphthalen-1-yl)ethyl)amino)methyl)chroman-4-yl)benzoic acid hydrochloride]",20 to 50
17,"COc1cc(C(=O)O)ccc1[C@@H]1C[C@H](CN[C@H](C)c2cccc3ccccc23)Oc2ccccc21 [Example 102b, 3-Methoxy-4-((2R,4S)-2-((((R)-1-(naphthalen-1-yl)ethyl)amino)methyl)chroman-4-yl)benzoic acid hydrochloride]",< 20
18,"C[C@@H](NC[C@H]1C[C@@H](c2ccc(C(=O)O)c(F)c2)c2ccccc2O1)c1cccc2ccccc12 [Example 104, 2-Fluoro-4-((2R,4S)-2-((((R)-1-(naphthalen-1-yl)ethyl)amino)methyl)chroman-4-yl)benzoic acid hydrochloride]",< 20
19,"C[C@@H](NC[C@H]1C[C@@H](c2ccc(OCC(=O)O)cc2)c2ccccc2O1)c1cccc2ccccc12 [Example 105b, 2-(4-((2R,4S)-2-((((R)-1-(Naphthalen-1-yl)ethyl)amino)methyl)chroman-4-yl)phenoxy)acetic acid hydrochloride]",< 20
20,"C[C@@H](NC[C@H]1C[C@@H](c2ccc(CC(=O)O)cc2)c2ccccc2O1)c1cccc2ccccc12 [Example 107b, 2-(4-((2R,4S)-2-((((R)-1-(Naphthalen-1-yl)ethyl)amino)methyl)chroman-4-yl)phenyl)acetic acid hydrochloride]",20 to 50
21,"C[C@@H](NC[C@H]1C[C@H](c2ccc(C(C)(C)C(=O)O)cc2)c2ccccc2O1)c1cccc2ccccc12 [Example 108a, 2-Methyl-2-(4-((2R,4R)-2-((((R)-1-(naphthalen-1-yl)ethyl)amino)methyl)chroman-4-yl)phenyl)propanoic acid hydrochloride]",50 to 200
22,"C[C@@H](NC[C@H]1C[C@@H](c2ccc(C(C)(C)C(=O)O)cc2)c2ccccc2O1)c1cccc2ccccc12 [Example 108b, 2-Methyl-2-(4-((2R,4S)-2-((((R)-1-(naphthalen-1-yl)ethyl)amino)methyl)chroman-4-yl)phenyl)propanoic acid hydrochloride]",50 to 200
23,"COc1cc([C@@H](C)NC[C@H]2C[C@@H](c3ccc(C(=O)O)c(C)c3)c3ccccc3O2)ccc1F [Example 114, 4-((2R,4S)-2-((((R)-1-(4-Fluoro-3-methoxyphenyl)ethyl)amino)methyl)chroman-4-yl)-2-methylbenzoic acid hydrochloride]",50 to 200
